Measurements reported in patent US20100248321A1, “SURFACTANT AMENDMENTS FOR THE STIMULATION OF BIOGENIC GAS GENERATION IN DEPOSITS OF CARBONACEOUS MATERIALS” (LUCA Technologies, Inc., priority 2009, published 2010).

How the values were obtained:
[1] = system: coal samples from the Powder River Basin in Wyoming; assay: biogenic methane generation from coal samples after surfactant amendment; set-up: species or system microbial consortia present in coal and associated waters; conditions: after more than 100 days; headspace methane by gas chromatograph; surfactants tested at 0.05 to 0.5 g/L; 2.5 gram coal, 15 mL formation water
Description: (§1) Experiments were conducted to compare biogenic methane generation from coal samples after introducing an amendment of a surfactant. For each experiment, methane generation from coal samples from the Powder River Basin in Wyoming and shale samples from the Antrim Shale in Michigan was periodically measured over the course of more than 100 days. Each 2.5 gram coal sample or 5 g shale sample was placed in a 30 ml serum bottle with 15 mL of water that was also taken from the formation. The coal or shale and formation water were placed in the serum bottle while working in an anaerobic glove bag. The headspace in the bottle above the sample was flushed with a mixture of N2 and CO2 (95/5).
(§2) Amendments were then added to the samples. Surfactants were tested at concentrations of 0.05 to 0.5 g/L. Surfactants were tested alone and in combination with other amendments, including proteins (e.g., yeast extract), phosphate and acetate. The samples were then sealed, removed from the glove bag, and stored at a temperature close to the in situ temperature for the coal or shale samples over the course of the experiments.
(§3) The methane levels in the headspace above the samples was periodically measured and recorded. The methane was measured by running samples of the headspace gases through a gas chromatograph equipped with a thermal conductivity detector.

[2] = system: shale samples from the Antrim Shale in Michigan; assay: biogenic methane generation from shale samples after surfactant amendment; set-up: species or system microbial consortia present in shale and associated waters; conditions: after more than 100 days; headspace methane by gas chromatograph; surfactants tested at 0.05 to 0.5 g/L; 5 g shale, 15 mL formation water
Description: as §1, §2, §3

Benzalkonium chloride
methane production in coal containing bottles [1]: highest levels of methane production

CCCCOCCO [2-butoxyethanol]
methane production in shale containing bottles [2]: highest levels of methane production | methane production in coal containing bottles [1]: highest levels of methane production

CCCCCCCC/C=C\CCCCCCCC(=O)N(C)CCS(=O)(=O)[O-].[Na+] [Geropon T-77]
methane production in coal containing bottles [1]: highest levels of methane production
